Experiments:
[1] = system: human lung cancer NCI-H1975 subcutaneous xenograft tumor; test: NCI-H1975 subcutaneous xenograft tumor BALB/c nude mouse model; format: in vivo, BALB/c nude mice
Experimental: Human lung cancer NCI-H1975 cells were cultured in vitro in a monolayer under the conditions of 1640 medium with 10% fetal bovine serum, 1% double antibodies and incubated at 37° C. in a 5% CO2 incubator. Routine treatment passages were performed twice a week. When the cell saturation was 80%-90% and the number reached the required level, the cells were collected, counted, and inoculated.
BALB/c nude mice, female, 6-8 weeks old, weighing 18-22 g. Provided by Shanghai Xipuer-Bikai Laboratory Animal Co., Ltd. or other qualified suppliers.
Tumor tissue was collected from H1975 tumor-bearing mice of human lung cancer xenograft model, cut into 2-3 mm diameter tumor blocks and inoculated subcutaneously at the right anterior scapula of Balb/c nude mice. When the average tumor volume was 145 mm^3, the tumors were randomly grouped according to their size, and the day of grouping was defined as day 0.
The experimental index was to examine whether tumor growth was inhibited, delayed or cured. Tumor diameters were measured with vernier calipers twice a week. The calculation formula of tumor volume was: V=0.5a×b^2, wherein a and b represented the long and short diameters of the tumor, respectively. The antitumor efficacy of the compounds was evaluated by TGI (%) or relative tumor proliferation rate T/C (%). TGI (%), reflecting the tumor growth inhibition rate. Calculation of TGI (%): TGI (%)=[(1−(average tumor volume at the end of administration of a treatment group−average tumor volume at the beginning of administration of this treatment group))/(average tumor volume at the end of treatment in the solvent control group−average tumor volume at the beginning of treatment of the solvent control group)]×100%. Relative tumor proliferation rate T/C (%): The calculation formula was as follows: T/C %=TRTV/CRTV×100% (TRTV: RTV in the treatment group; CRTV: RTV in the negative control group). The relative tumor volume (RTV) was calculated according to the results of tumor measurement, and the formula was RTV=Vt/V0, wherein V0 was the average tumor volume measured at the time of group administration (i.e., d0), and Vt was the average tumor volume at a certain measurement, TRTV and CRTV were taken on the same day. After the experiment, the tumor weight will be detected, and the percentage of T/Cweight will be calculated. Tweight and Cweight represented the tumor weight of the administration group and the solvent control group, respectively.

[2] = Pharmacokinetic study, single intravenous and oral administration in rats; format: in vivo; conditions: rat, plasma; for AUC(0-t): read-out: Exposure of AUC0-last
Experimental: (§1) The purpose of this experiment was to investigate the pharmacokinetics (PK) of the compounds in different species after single intravenous and single oral administration of the test compounds.
(§2) After intravenous or oral administration, blood samples were collected from the animals, and the actual time of blood collection was recorded. After the blood samples were collected, the samples were immediately transferred to the labelled centrifuge tube containing K2-EDTA, and then centrifuged to obtain plasma. Plasma was transferred to pre-cooled centrifuge tubes, quick-frozen in dry ice and stored in an ultra-low temperature refrigerator at −70±10° C. until LC-MS/MS analysis was performed.
(§3) The plasma drug concentration data of the compounds were processed using pharmacokinetic software with a non-compartmental model. The peak concentration (Cmax) and time to peak (Tmax), as well as the quantifiable end time were obtained directly from the plasma concentration-time curve. The following pharmacokinetic parameters were calculated using the log-linear trapezoidal method: half-life (T1/2), apparent volume of distribution (Vdss), and clearance (Cl), area under the time-plasma concentration curve from point 0 to the end time point (AUC0-last), and initial concentration (C0).

[3] = Pharmacokinetic study, single intravenous and oral administration in Beagle dogs; format: in vivo; conditions: dog, plasma; for AUC(0-t): read-out: Exposure of AUC0-last
Experimental: as §1, §2, §3

[4] = intravenous injection 2 mg/kg, read-out: Exposure of AUC
[5] = intravenous injection 2 mg/kg, read-out: Vdss

SMILES: C=CC(=O)Nc1cc(Nc2ncc(C(=O)OC(C)C)c(-c3cn(OC)c4ccccc34)n2)c(OC)cc1N(C)CCN(C)C.CS(=O)(=O)O [Compound 1]
- Tumor volume (Day 0) ([1]; Day 0 (grouping), mean ± standard error, n = 6): 153 ± 7 mm^3
- RTV ([1]; Day 20): 0.20 ± 0.10
- T/C ([1]; Day 20): 1.35%
- TGI ([1]; Day 20): 105.3%
- Tumor volume (Day 20) ([1]; Day 20, mean ± standard error, n = 6): 33 ± 16 mm^3
- clearance ([2]; intravenous injection 2 mg/kg): 90.5 mL/min/kg
- half-life ([2]; intravenous injection 2 mg/kg): 2.62 h
- AUC [2, 4]: 0.548 µM·h
- Vd [2, 5]: 18 L/kg
- bioavailability ([2]; oral 10 mg/kg): 21.6%
- AUC(0-t) ([2]; oral 10 mg/kg): 0.593 µM·h
- bioavailability ([2]; oral 20 mg/kg): 57.1%
- AUC(0-t) ([2]; oral 20 mg/kg): 3.13 µM·h
- bioavailability ([2]; oral 50 mg/kg): 68.6%
- AUC(0-t) ([2]; oral 50 mg/kg): 9.39 µM·h
- bioavailability ([2]; oral 200 mg/kg): 34.5%
- AUC(0-t) ([2]; oral 200 mg/kg): 18.9 µM·h
- clearance ([3]; intravenous injection 2 mg/kg): 12.7 mL/min/kg
- half-life ([3]; intravenous injection 2 mg/kg): 8.79 h
- AUC [3, 4]: 3.85 µM·h
- Vd [3, 5]: 7.98 L/kg
- bioavailability ([3]; oral 10 mg/kg): 53.5%
- AUC(0-t) ([3]; oral 10 mg/kg): 10.3 µM·h
- bioavailability ([3]; oral 50 mg/kg): 36.6%
- AUC(0-t) ([3]; oral 50 mg/kg): 35.3 µM·h
